{"source": "patent EP1105395B1", "about": "“PHOTOCYCLIZED RAPAMYCINS” (priority 1998, dated 2000)", "assay_in_all_cases": "Antifungal activity, microtiter broth dilution MIC", "assay_type_in_all_cases": "cell-based", "key": {"Candida rugosa": {"tested_on": "Candida rugosa", "settings": "Candida rugosa ID 94-10, 35 °C, 24-48 hours", "experimental": "(§1) Antifungal activity for the compounds of this invention was established by evaluating a representative compound of this invention (Compound I) against several strains of fungi. Briefly the following procedure was used to evaluate such activity. A 96 U-bottom microtiter plate was filled (50 µl/well) with RPMI 1640. The compounds to be evaluated were placed in appropriate wells, and serial diluted in successive wells to provide 11 dilutions. The concentrations ranged from 64 through 0.06 µg/ml. An adjusted inoculum of fungi (50 µl) was added to each well and the plates were incubated at 35 °C for 24-48 hours. […]"}, "Aspergillus fumigatus": {"tested_on": "Aspergillus fumigatus", "settings": "Aspergillus fumigatus ID ATCC 26933, 35 °C, 24-48 hours", "experimental": "as §1"}, "Cryptococcus neoformans": {"tested_on": "Cryptococcus neoformans", "settings": "Cryptococcus neoformans ID ATCC 90112, 35 °C, 24-48 hours", "experimental": "as §1"}, "Aspergillus flavus": {"tested_on": "Aspergillus flavus", "settings": "Aspergillus flavus ID ATCC 12963, 35 °C, 24-48 hours", "experimental": "as §1"}, "Candida albicans": {"tested_on": "Candida albicans", "settings": "35 °C, 24-48 hours", "experimental": "as §1"}, "Candida krussii": {"tested_on": "Candida krussii", "settings": "Candida krussii ID 94-2, 35 °C, 24-48 hours", "experimental": "as §1"}, "Candida glabrata": {"tested_on": "Candida glabrata", "settings": "Candida glabrata ID ATCC 90030, 35 °C, 24-48 hours", "experimental": "as §1"}, "[1]": {"tested_on": "Filobasidiella neoformans", "settings": "Filobasidiella neoformans ID ATCC 7472, 35 °C, 24-48 hours", "experimental": "as §1"}, "Candida lusitaniae": {"tested_on": "Candida lusitaniae", "settings": "Candida lusitaniae ID 94-3, 35 °C, 24-48 hours", "experimental": "as §1"}, "Candida zeylanoided": {"tested_on": "Candida zeylanoided", "settings": "Candida zeylanoided ID 94-15, 35 °C, 24-48 hours", "experimental": "as §1"}, "Aspergillus niger": {"tested_on": "Aspergillus niger", "settings": "Aspergillus niger ID S-430, 35 °C, 24-48 hours", "experimental": "as §1"}, "Candida parapsilosis": {"tested_on": "Candida parapsilosis", "settings": "35 °C, 24-48 hours", "experimental": "as §1"}, "Candida tropicalis": {"tested_on": "Candida tropicalis", "settings": "35 °C, 24-48 hours", "experimental": "as §1"}, "Saccharomyces cerevisiae": {"tested_on": "Saccharomyces cerevisiae", "settings": "Saccharomyces cerevisiae ID ATCC 2601, 35 °C, 24-48 hours", "experimental": "as §1"}, "Candida pseudotropicalis": {"tested_on": "Candida pseudotropicalis", "settings": "Candida pseudotropicalis ID ATCC 28838, 35 °C, 24-48 hours", "experimental": "as §1"}}, "note": "Read-outs that look alike come from different tables or passages of the source."}
{"smiles": "C[C@@H]1[C@H](O)[C@@H](C)/C=C/C=C/C=C/C=C/C=C/C=C/C=C/[C@H](O[C@@H]2O[C@H](C)[C@@H](O)[C@H](N)[C@@H]2O)C[C@@H]2O[C@](O)(C[C@@H](O)C[C@@H](O)[C@H](O)CC[C@@H](O)C[C@@H](O)CC(=O)O[C@H]1C)C[C@H](O)[C@H]2C(=O)O", "note": "[Amphtericin B]", "values": [{"measurement": "MIC", "setting": "Candida rugosa", "value": 0.25, "unit": "µg/mL"}, {"measurement": "MIC", "setting": "Aspergillus fumigatus", "value": 0.25, "unit": "µg/mL"}, {"measurement": "MIC", "setting": "Cryptococcus neoformans", "value": "≤0.12", "unit": "µg/mL"}, {"measurement": "MIC", "setting": "Aspergillus flavus", "value": 2, "unit": "µg/mL"}, {"measurement": "MIC", "setting": "Candida albicans; Candida albicans ID 94-1", "value": "≤0.12", "unit": "µg/mL"}, {"measurement": "MIC", "setting": "Candida albicans; Candida albicans ID 1063", "value": 0.25, "unit": "µg/mL"}, {"measurement": "MIC", "setting": "Candida albicans; Candida albicans ID 1117", "value": 0.25, "unit": "µg/mL"}, {"measurement": "MIC", "setting": "Candida albicans; Candida albicans ID ATCC 90028", "value": 0.25, "unit": "µg/mL"}, {"measurement": "MIC", "setting": "Candida albicans; Candida albicans ID C-83", "value": 0.25, "unit": "µg/mL"}, {"measurement": "MIC", "setting": "Candida krussii", "value": 0.5, "unit": "µg/mL"}, {"measurement": "MIC", "setting": "Candida glabrata", "value": 0.25, "unit": "µg/mL"}, {"measurement": "MIC", "setting": "[1]", "value": 0.12, "unit": "µg/mL"}, {"measurement": "MIC", "setting": "Candida lusitaniae", "value": "≤0.12", "unit": "µg/mL"}, {"measurement": "MIC", "setting": "Candida zeylanoided", "value": 0.25, "unit": "µg/mL"}, {"measurement": "MIC", "setting": "Aspergillus niger", "value": 0.25, "unit": "µg/mL"}, {"measurement": "MIC", "setting": "Candida parapsilosis; Candida parapsilosis ID 94-8", "value": 0.25, "unit": "µg/mL"}, {"measurement": "MIC", "setting": "Candida parapsilosis; Candida parapsilosis ID 94-9", "value": 0.5, "unit": "µg/mL"}, {"measurement": "MIC", "setting": "Candida parapsilosis; Candida parapsilosis ID ATCC 90018", "value": "≤0.12", "unit": "µg/mL"}, {"measurement": "MIC", "setting": "Candida tropicalis; Candida tropicalis ID 94-13", "value": 0.25, "unit": "µg/mL"}, {"measurement": "MIC", "setting": "Candida tropicalis; Candida tropicalis ID 94-14", "value": 0.25, "unit": "µg/mL"}, {"measurement": "MIC", "setting": "Saccharomyces cerevisiae", "value": "≤0.12", "unit": "µg/mL"}, {"measurement": "MIC", "setting": "Candida pseudotropicalis", "value": 0.25, "unit": "µg/mL"}]}
{"smiles": "Clc1ccc(COC(Cn2ccnc2)c2ccc(Cl)cc2Cl)c(Cl)c1", "note": "(centres unmarked) [Miconazole]", "values": [{"measurement": "MIC", "setting": "Candida rugosa; Diutina rugosa, read-out: MIC", "value": "≤ 0.12", "unit": "µg/mL"}, {"measurement": "MIC", "setting": "Aspergillus fumigatus; ATCC26933, read-out: MIC", "value": 1, "unit": "µg/mL"}, {"measurement": "MIC", "setting": "Cryptococcus neoformans; ATCC90112, read-out: MIC", "value": "≤ 0.12", "unit": "µg/mL"}, {"measurement": "MIC", "setting": "Aspergillus flavus; ATCC12963, read-out: MIC", "value": 0.5, "unit": "µg/mL"}, {"measurement": "MIC", "setting": "Candida albicans; Candida albicans, ATCC90028, Candida albicans ID ATCC 90028, read-out: MIC", "value": 0.5, "unit": "µg/mL"}, {"measurement": "MIC", "setting": "Candida albicans; Candida albicans, Candida albicans ID 94-1, read-out: MIC", "value": 8, "unit": "µg/mL"}, {"measurement": "MIC", "setting": "Candida albicans; Candida albicans, Candida albicans ID 1063, read-out: MIC", "value": 1, "unit": "µg/mL"}, {"measurement": "MIC", "setting": "Candida albicans; Candida albicans, Candida albicans ID 1117, read-out: MIC", "value": 1, "unit": "µg/mL"}, {"measurement": "MIC", "setting": "Candida albicans; Candida albicans, Candida albicans ID C-83, read-out: MIC", "value": 8, "unit": "µg/mL"}, {"measurement": "MIC", "setting": "Candida krussii; read-out: MIC", "value": 2, "unit": "µg/mL"}, {"measurement": "MIC", "setting": "Candida glabrata; Nakaseomyces glabratus, ATCC90030, read-out: MIC", "value": "≤ 0.12", "unit": "µg/mL"}, {"measurement": "MIC", "setting": "[1]; Cryptococcus neoformans, ATCC7472, read-out: MIC", "value": 0.25, "unit": "µg/mL"}, {"measurement": "MIC", "setting": "Candida lusitaniae; Clavispora lusitaniae, read-out: MIC", "value": "≤ 0.12", "unit": "µg/mL"}, {"measurement": "MIC", "setting": "Candida zeylanoided; read-out: MIC", "value": 0.25, "unit": "µg/mL"}, {"measurement": "MIC", "setting": "Aspergillus niger; read-out: MIC", "value": 4, "unit": "µg/mL"}, {"measurement": "MIC", "setting": "Candida parapsilosis; Lodderomyces parapsilosis, ATCC90018, Candida parapsilosis ID ATCC 90018, read-out: MIC", "value": "≤ 0.12", "unit": "µg/mL"}, {"measurement": "MIC", "setting": "Candida parapsilosis; Lodderomyces parapsilosis, Candida parapsilosis ID 94-8, read-out: MIC", "value": 0.25, "unit": "µg/mL"}, {"measurement": "MIC", "setting": "Candida parapsilosis; Lodderomyces parapsilosis, Candida parapsilosis ID 94-9, read-out: MIC", "value": 0.5, "unit": "µg/mL"}, {"measurement": "MIC", "setting": "Candida tropicalis; Candida tropicalis ID 94-13", "value": 4, "unit": "µg/mL"}, {"measurement": "MIC", "setting": "Candida tropicalis; Candida tropicalis ID 94-14, read-out: MIC", "value": 4, "unit": "µg/mL"}, {"measurement": "MIC", "setting": "Saccharomyces cerevisiae; ATCC2601, read-out: MIC", "value": "≤ 0.12", "unit": "µg/mL"}, {"measurement": "MIC", "setting": "Candida pseudotropicalis; Kluyveromyces marxianus, ATCC28838, read-out: MIC", "value": "≤ 0.12", "unit": "µg/mL"}]}
